Results published in paper PMC6231190 (ACS Medicinal Chemistry Letters, 2018).
Like-named read-outs stand apart in the source and are kept apart here. One block for each compound: values may come before it.

Key:
WT p97 = WT p97 (Homo sapiens, UniProt P55072); conditions: for fold less potent than 17: p97 IC50 ratio vs 17; for p97 inhibition (in words): biochemical ATPase assay
NCI-60 cell line panel [1] = conditions: range over lines; for pGI50, CNS tumor cell lines: NCI-60 CNS tumor subpanel; for pGI50, NSCL cancer cell lines: NCI-60 NSCL cancer subpanel; for pGI50, leukemia cell lines: NCI-60 leukemia subpanel; for pGI50, melanoma cell lines: NCI-60 melanoma subpanel; for pGI50, ovarian cancer cell lines: NCI-60 ovarian cancer subpanel; for pGI50, renal cancer cell lines: NCI-60 renal cancer subpanel
Aqueous solubility = assay type: physicochemical; conditions: potassium phosphate buffer, pH 7.4, solubility (μM)
[2] = test system: HeLa cell line with the ubiquitin fusion degradation reporter UbG76V-GFP; assay: UbG76V-GFP accumulation assay
NCI-60 cell line panel [3] = assay: cells; conditions: Homo sapiens, read-out: pGI50, prostate cancer cell lines (converted)
[4] = Metabolic stability in mouse liver microsomes; assay type: in vitro ADME; conditions: pH 7.4, MLM (t1/2, min)
[5] = Metabolic stability in human liver microsomes; assay type: in vitro ADME; conditions: pH 7.4, HLM (t1/2, min)
[6] = Homo sapiens, HeLa, 6 h, read-out: Ub^G76 V-GFP EC50 (μM), 6 h

Sequence of WT p97 (P55072 whole entry): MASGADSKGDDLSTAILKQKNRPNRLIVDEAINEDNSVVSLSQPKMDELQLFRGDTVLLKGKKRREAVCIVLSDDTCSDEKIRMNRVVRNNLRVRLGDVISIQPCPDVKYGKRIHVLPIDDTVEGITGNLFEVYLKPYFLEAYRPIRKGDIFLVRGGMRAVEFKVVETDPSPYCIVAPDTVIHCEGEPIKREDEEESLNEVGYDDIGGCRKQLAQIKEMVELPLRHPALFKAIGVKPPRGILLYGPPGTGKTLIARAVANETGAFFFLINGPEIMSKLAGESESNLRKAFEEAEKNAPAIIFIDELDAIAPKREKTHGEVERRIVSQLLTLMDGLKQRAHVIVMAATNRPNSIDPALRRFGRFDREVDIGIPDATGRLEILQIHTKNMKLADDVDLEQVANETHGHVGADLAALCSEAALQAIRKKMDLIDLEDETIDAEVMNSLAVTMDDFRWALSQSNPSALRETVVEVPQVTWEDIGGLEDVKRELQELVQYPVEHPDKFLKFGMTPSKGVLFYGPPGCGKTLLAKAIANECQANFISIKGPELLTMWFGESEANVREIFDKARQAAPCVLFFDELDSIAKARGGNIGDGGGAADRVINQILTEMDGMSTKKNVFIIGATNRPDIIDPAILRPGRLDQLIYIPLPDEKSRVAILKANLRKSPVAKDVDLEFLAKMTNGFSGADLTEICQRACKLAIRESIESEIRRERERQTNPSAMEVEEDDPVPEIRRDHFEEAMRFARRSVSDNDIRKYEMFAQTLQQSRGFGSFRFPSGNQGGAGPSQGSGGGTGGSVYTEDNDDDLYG

SMILES: CC(C)N1CCC(N[C@H]2CC[C@H](c3cccc(-c4cc5cc(F)ccc5[nH]4)c3)CC2)CC1 [Compound 18]
fold less potent than 17 (WT p97): 3–4 fold

SMILES: CC(C)N1CCC(NC2CCN(c3cccc(-c4cc5cc(F)ccc5[nH]4)c3)CC2)CC1 [Compound 17]
pGI50, CNS tumor cell lines (NCI-60 cell line panel [1]): −5.7 to −5.8
pGI50, NSCL cancer cell lines (NCI-60 cell line panel [1]): −5.7 to −6.0
pGI50, colon cancer cell lines (NCI-60 cell line panel [1]; NCI-60 colon cancer subpanel): 5.8 to −6.4
pGI50, leukemia cell lines (NCI-60 cell line panel [1]): −5.7 to −6.7
pGI50, melanoma cell lines (NCI-60 cell line panel [1]): −5.7 to −5.9
pGI50, ovarian cancer cell lines (NCI-60 cell line panel [1]): −5.7 to −5.8
pGI50, renal cancer cell lines (NCI-60 cell line panel [1]): −5.7 to −5.8
solubility (Aqueous solubility): > 300 µM
EC50 [2, 6]: > 40 µM
GI50 (NCI-60 cell line panel [3]): 2000 nM
half-life at 10 µM [4]: > 270 min

SMILES: CN(C)CCNC1CCN(c2cccc(-c3cc4cc(F)ccc4[nH]3)c2)CC1 [Compound 15]
fold less potent than 14 (WT p97; p97 IC50 ratio vs 14): > 10 fold

SMILES: CC(C)N1CCN(C2CCN(c3cccc(-c4cc5cc(F)ccc5[nH]4)c3)CC2)CC1 [Compound 21]
p97 inhibition (in words) (WT p97): micromolar range

SMILES: c1cc(-c2cc3ccccc3[nH]2)cc(N2CCC(NCCN3CCNCC3)CC2)c1 [Compound 8]
improvement in potency compared to compound 1 (WT p97; p97 IC50 ratio vs 1): ~3 fold

SMILES: CN1CCN(C2(CNC3CCN(c4cccc(-c5cc6cc(F)ccc6[nH]5)c4)CC3)CCC2)CC1 [Compound 23]
pGI50, CNS tumor cell lines (NCI-60 cell line panel [1]): −5.7 to −5.8
pGI50, NSCL cancer cell lines (NCI-60 cell line panel [1]): −5.7 to −5.8
pGI50, leukemia cell lines (NCI-60 cell line panel [1]): −5.7 to −6.7
pGI50, melanoma cell lines (NCI-60 cell line panel [1]): −5.7 to −6.5
pGI50, ovarian cancer cell lines (NCI-60 cell line panel [1]): −5.7 to −5.8
pGI50, renal cancer cell lines (NCI-60 cell line panel [1]): −5.7 to −5.8
solubility (Aqueous solubility): > 300 µM
EC50 [2, 6]: > 40 µM
fold more potent than the N-iPr analog (24) (WT p97; p97 IC50 ratio vs 24): 5 fold
half-life at 10 µM [5]: > 270 min
half-life at 10 µM [4]: > 270 min

SMILES: CC(C)N1CCN(CCCNC2CCN(c3cccc(-c4cc5ccccc5[nH]4)c3)CC2)CC1 [Compound 13]
fold less potent than 2-carbon homologue 11 (WT p97; p97 IC50 ratio vs 11): ~2 fold

SMILES: CC(C)N1CC2CN(c3cccc(-c4cc5cc(F)ccc5[nH]4)c3)CC2C1 (centres unmarked) [Compound 22]
p97 inhibition (in words) (WT p97): micromolar range

SMILES: CC(C)N1CCC(N[C@H]2CC[C@@H](c3cccc(-c4cc5cc(F)ccc5[nH]4)c3)CC2)CC1 [Compound 19]
fold less potent than 17 (WT p97): > 100 fold
fold less potent compared to the trans-isomer (WT p97; p97 IC50 ratio vs 18): > 20 fold

SMILES: CC(C)N1CCC2(CCN(c3cccc(-c4cc5cc(F)ccc5[nH]4)c3)CC2)CC1 [Compound 20]
p97 inhibition (in words) (WT p97): micromolar range

EC50 ([2]; read-out: Ub^G76 V-GFP EC50 (μM), 1 h): 1.4 µM
SMILES: Cc1cc(OCc2nnc(SC3CCCC3)n2-c2cccnc2)ccc1-c1ccc(S(C)(=O)=O)cc1 [NMS-873, reference compound]
